Data reported in the NIST ThermoML archive (doi:10.1016/j.jct.2016.07.041).

Experiment: xn = mol fraction of the nth substance listed
Conditions: 101 kPa, Liquid; for viscosity: Capillary tube (Ostwald / Ubbelohde) method; for mass density: Vibrating tube method

NCCO [2-aminoethan-1-ol] + O
Conditions | mass density, 293.15 K [kg/m3] | mass density, 303.15 K [kg/m3] | mass density, 313.15 K [kg/m3] | mass density, 323.15 K [kg/m3] | mass density, 333.15 K [kg/m3] | viscosity, 293.15 K [mPa·s] | viscosity, 303.15 K [mPa·s] | viscosity, 313.15 K [mPa·s] | viscosity, 323.15 K [mPa·s] | viscosity, 333.15 K [mPa·s]
x1 = 0.0996 | 1010.9 | 1006.8 | 1002.1 | 996.9 | 991.2 | 2.54 | 1.89 | 1.45 | 1.15 | 0.93
x1 = 0.1991 | 1021.6 | 1016.1 | 1010.2 | 1004 | 997.6 | 5.52 | 3.84 | 2.8 | 2.09 | 1.62
x1 = 0.2986 | 1027.4 | 1021 | 1014.4 | 1007.5 | 1000.4 | 10.06 | 6.65 | 4.62 | 3.35 | 2.52
x1 = 0.3977 | 1029.4 | 1022.5 | 1015.4 | 1007.8 | 1000.6 | 15.1 | 9.64 | 6.52 | 4.66 | 3.41
x1 = 0.4967 | 1028.9 | 1021.5 | 1014.2 | 1006.6 | 999 | 19.57 | 12.22 | 8.1 | 5.67 | 4.09
x1 = 0.5958 | 1027 | 1019.4 | 1011.9 | 1004.3 | 996.5 | 22.91 | 14.08 | 9.33 | 6.46 | 4.65
x1 = 0.6946 | 1024.4 | 1016.8 | 1009 | 1001.2 | 993.4 | 24.48 | 15.01 | 9.75 | 6.9 | 4.95
x1 = 0.7932 | 1021.6 | 1013.8 | 1006 | 998.2 | 990.2 | 25 | 15.36 | 9.98 | 6.91 | 4.99
x1 = 0.8919 | 1018.7 | 1010.8 | 1002.9 | 995 | 987 | 24.58 | 15.16 | 9.94 | 6.89 | 4.99
x1 = 1 | 1015.5 | 1007.6 | 999.7 | 991.7 | 983.6 | 23.65 | 14.75 | 9.78 | 6.81 | 4.99

NCCO [2-aminoethan-1-ol] + CCCCn1cc[n+](C)c1.F[B-](F)(F)F
Conditions | mass density, 293.15 K [kg/m3] | mass density, 303.15 K [kg/m3] | mass density, 313.15 K [kg/m3] | mass density, 323.15 K [kg/m3] | mass density, 333.15 K [kg/m3] | viscosity, 293.15 K [mPa·s] | viscosity, 303.15 K [mPa·s] | viscosity, 313.15 K [mPa·s] | viscosity, 323.15 K [mPa·s] | viscosity, 333.15 K [mPa·s]
x2 = 0 | 1015.5 | 1007.6 | 999.7 | 991.7 | 983.6 | 23.65 | 14.75 | 9.78 | 6.81 | 4.99
x2 = 0.1001 | 1065.1 | 1057.3 | 1049.3 | 1041.4 | 1033.4 | 26.23 | 16.27 | 10.72 | 7.39 | 5.38
x2 = 0.2 | 1098.6 | 1090.6 | 1082.8 | 1075 | 1067.2 | 29.02 | 17.98 | 11.84 | 8.21 | 6.02
x2 = 0.2999 | 1123 | 1115.4 | 1107.6 | 1099.8 | 1092.1 | 32.91 | 20.36 | 13.45 | 9.29 | 6.82
x2 = 0.3751 | 1137.9 | 1130.3 | 1122.5 | 1114.8 | 1107.1 | 36.29 | 22.48 | 14.89 | 10.41 | 7.57
x2 = 0.5002 | 1157.4 | 1149.9 | 1142.3 | 1134.7 | 1127.1 | 43.39 | 26.71 | 17.78 | 12.4 | 9.11
x2 = 0.5997 | 1169.7 | 1162.5 | 1154.9 | 1147.4 | 1139.9 | 51.66 | 31.82 | 20.98 | 14.53 | 10.6
x2 = 0.6996 | 1180.2 | 1173 | 1165.4 | 1158.2 | 1150.7 | 61.28 | 37.57 | 24.39 | 17.03 | 12.51
x2 = 0.8 | 1189.4 | 1182.3 | 1174.8 | 1167.5 | 1160.3 | 75.78 | 46.5 | 30.43 | 21.12 | 15.41
x2 = 0.9003 | 1197.8 | 1190.6 | 1183.4 | 1176.1 | 1169.1 | 98.71 | 59.85 | 39.19 | 26.65 | 19.22
